Experimental data as given in patent US9809574B2, “Isoindoline or isoquinoline compounds, a process for their preparation and pharmaceutical compositions containing them” (LES LABORATOIRES SERVIER, priority 2013, dated 2017).
Counter-ions that a name gives are not always drawn.

Key:
Bcl-2 protein = Bcl-2 protein (histag-Bcl-2, UniProtKB P10415) (Homo sapiens (Human), UniProt P10415); experiment: Inhibition of Bcl-2 by the fluorescence polarisation technique; assay type: binding; conditions: fluorescence polarisation test; incubation for 2 hours; read-out: IC50 (nM) Bcl-2 FP
Sequence of Bcl-2 protein (P10415 whole entry): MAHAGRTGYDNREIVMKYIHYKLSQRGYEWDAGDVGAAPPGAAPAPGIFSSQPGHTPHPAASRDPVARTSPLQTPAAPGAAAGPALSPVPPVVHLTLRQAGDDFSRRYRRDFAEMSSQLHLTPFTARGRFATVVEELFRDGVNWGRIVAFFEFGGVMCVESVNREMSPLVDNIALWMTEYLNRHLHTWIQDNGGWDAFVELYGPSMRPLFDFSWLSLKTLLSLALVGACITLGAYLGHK
Source text: For partial inhibitors, the percentage fluorescence polarisation inhibition for a given concentration of the test compound is indicated.

[1] = tested on: RS4; 11 leukaemia cell line; experiment: In vitro cytotoxicity, Microculture Tetrazolium Assay (MTT); assay type: cell-based; conditions: Homo sapiens, 11 cells exposed for 48 hours
Protocol: The cytotoxicity studies were carried out on the RS4; 11 leukaemia cell line and on H146 small Cell Lung Carcinoma cell line. The cells are distributed onto microplates and exposed to the test compounds for 48 hours. The cell viability is then quantified by a colorimetric assay, the Microculture Tetrazolium Assay (Cancer Res., 1987, 47, 939-942).

Cc1c(C(=O)N(C)c2ccc(O)cc2)cc(-c2cc3c(cc2C(=O)N2Cc4ccccc4C[C@H]2CN2CCOCC2)CN(C(=O)OC2CCCCC2)CC3)n1C [Example 791, Cyclohexyl 6-{4-[(4-hydroxyphenyl)(methyl)carbamoyl]-1,5-dimethyl-1H-pyrrol-2-yl}-7-[(3S)-3-(morpholin-4-ylmethyl)-1,2,3,4-tetrahydroisoquinoline-2-carbonyl]-1,2,3,4-tetrahydroisoquinoline-2-carboxylate]
IC50 (Bcl-2 protein): 2.8 nM
IC50 [1]: 54 nM

C[C@@H]1Cc2ccccc2CN1C(=O)c1cc2c(cc1-c1cc(C(=O)N(C)c3ccc(O)cc3)c3n1CCCC3)CN(C(=O)OCc1ccccc1)C2 [Example 62, Benzyl 5-{1-[(4-hydroxyphenyl)(methyl)carbamoyl]-5,6,7,8-tetrahydroindolizin-3-yl}-6-[(3R)-3-methyl-1,2,3,4-tetrahydroisoquinoline-2-carbonyl]-2,3-dihydro-1H-isoindole-2-carboxylate]
IC50 (Bcl-2 protein): 20 nM
IC50 [1]: 113 nM

Cc1c(C(=O)N(C)c2ccc(O)cc2)cc(-c2cc3c(cc2C(=O)N2Cc4ccccc4C[C@H]2C)CN(C(=O)Oc2ccc(N(C)CCN(C)C)cc2)CC3)n1C [Example 474, 4-{[2-(Dimethylamino)ethyl](methyl)amino}phenyl 6-{4-[(4-hydroxyphenyl)(methyl)carbamoyl]-1,5-dimethyl-1H-pyrrol-2-yl}-7-[(3R)-3-methyl-1,2,3,4-tetrahydroisoquinoline-2-carbonyl]-1,2,3,4-tetrahydroisoquinoline-2-carboxylate]
IC50 (Bcl-2 protein): 4.5 nM
IC50 [1]: 2.6 nM

C[C@@H]1Cc2ccccc2CN1C(=O)c1cc2c(cc1-c1cc(C(=O)N(C)c3ccc(O)cc3)c3n1CCCC3)CCN(C(=O)Oc1ccc(NCCN(C)C)cc1)C2 [Example 153, 4-{[2-(Dimethylamino)ethyl]amino}phenyl 6-{1-[(4-hydroxyphenyl)(methyl)carbamoyl]-5,6,7,8-tetrahydroindolizin-3-yl}-7-[(3R)-3-methyl-1,2,3,4-tetrahydroisoquinoline-2-carbonyl]-1,2,3,4-tetrahydroisoquinoline-2-carboxylate]
IC50 (Bcl-2 protein): 4.2 nM
IC50 [1]: 3.6 nM

C[C@@H]1Cc2ccccc2CN1C(=O)c1cc2c(cc1-c1cc(C(=O)N(C)c3ccc(O)cc3)c3n1CCCC3)CCN(C(=O)Cc1ccc(NCCN(C)C)cc1)C2 [Example 108, 3-{2-[2-(4-{[2-(Dimethylamino)ethyl]amino}phenyl)acetyl]-7-[(3R)-3-methyl-1,2,3,4-tetrahydroisoquinoline-2-carbonyl]-1,2,3,4-tetrahydroisoquinolin-6-yl}-N-(4-hydroxyphenyl)-N-methyl-5,6,7,8-tetrahydroindolizine-1-carboxamide hydrochloride]
IC50 (Bcl-2 protein): 2.7 nM
IC50 [1]: 15 nM

C[C@@H]1Cc2ccccc2CN1C(=O)c1cc2c(cc1-c1cc(C(=O)N(C)c3ccc(O)cc3)c3n1CCCC3)CCN(C(=O)OCc1ccccc1)C2 [Example 93, Benzyl 6-{1-[(4-hydroxyphenyl)(methyl)carbamoyl]-5,6,7,8-tetrahydroindolizin-3-yl}-7-[(3R)-3-methyl-1,2,3,4-tetrahydroisoquinoline-2-carbonyl]-1,2,3,4-tetrahydroisoquinoline-2-carboxylate]
IC50 (Bcl-2 protein): 5.1 nM
IC50 [1]: 11 nM

C[C@@H]1Cc2ccccc2CN1C(=O)c1cc2c(cc1-c1cc(C(=O)N(C)c3ccc(O)cc3)c3n1CCCC3)CCN(C(=O)Nc1ccccc1)C2 [Example 71, 6-{1-[(4-Hydroxyphenyl)(methyl)carbamoyl]-5,6,7,8-tetrahydroindolizin-3-yl}-7-[(3R)-3-methyl-1,2,3,4-tetrahydroisoquinoline-2-carbonyl]-N-phenyl-1,2,3,4-tetrahydroisoquinoline-2-carboxamide]
IC50 (Bcl-2 protein): 3.7 nM
IC50 [1]: 9.9 nM

Cc1c(C(=O)N(C)c2ccc(O)cc2)cc(-c2cc3c(cc2C(=O)N2Cc4ccccc4C[C@H]2C)CN(C(=O)CC2CCCCC2)CC3)n1C [Example 795, 5-[2-(2-Cyclohexylacetyl)-7-[(3R)-3-methyl-1,2,3,4-tetrahydroisoquinoline-2-carbonyl]-1,2,3,4-tetrahydroisoquinolin-6-yl]-N-(4-hydroxyphenyl)-N,1,2-trimethyl-1H-pyrrole-3-carboxamide]
IC50 (Bcl-2 protein): 5.3 nM
IC50 [1]: 32 nM

CN(C(=O)c1cc(-c2cc3c(cc2C(=O)N2Cc4ccccc4C[C@H]2CN2CCOCC2)CN(S(=O)(=O)c2ccc4ccccc4c2)CC3)n2c1CCCC2)c1ccc(O)cc1 [Example 5, N-(4-Hydroxyphenyl)-N-methyl-3-{7-[(3S)-3-(morpholin-4-ylmethyl)-1,2,3,4-tetrahydroisoquinoline-2-carbonyl]-2-(naphthalene-2-sulfonyl)-1,2,3,4-tetrahydroisoquinolin-6-yl}-5,6,7,8-tetrahydroindolizine-1-carboxamide]
IC50 (Bcl-2 protein): 43 nM
IC50 [1]: 70 nM

Cc1c(C(=O)N(C)c2ccc(O)cc2)cc(-c2cc3c(cc2C(=O)N2Cc4ccccc4C[C@H]2C)CN(C(=O)Oc2cccc(CCC(=O)N(C)C)c2)CC3)n1C [Example 776, 3-[2-(Dimethylcarbamoyl)ethyl]phenyl 6-{4-[(4-hydroxyphenyl)(methyl)carbamoyl]-1,5-dimethyl-1H-pyrrol-2-yl}-7-[(3R)-3-methyl-1,2,3,4-tetrahydroisoquinoline-2-carbonyl]-1,2,3,4-tetrahydroisoquinoline-2-carboxylate]
IC50 (Bcl-2 protein): 2.2 nM
IC50 [1]: 1.1 nM

Cc1c(C(=O)N(C)c2ccc(O)cc2)cc(-c2cc3c(cc2C(=O)N2Cc4ccccc4C[C@H]2CN2CCOCC2)CN(C(=O)COc2ccccc2)C3)n1C [Example 159, N-(4-Hydroxyphenyl)-N,1,2-trimethyl-5-{6-[(3S)-3-(morpholin-4-ylmethyl)-1,2,3,4-tetrahydroisoquinoline-2-carbonyl]-2-(2-phenoxyacetyl)-2,3-dihydro-1H-isoindol-5-yl}-1H-pyrrole-3-carboxamide]
IC50 (Bcl-2 protein): 8.5 nM
IC50 [1]: 163 nM

CCNC(=O)N1Cc2cc(C(=O)N3Cc4ccccc4C[C@H]3C)c(-c3cc(C(=O)N(C)c4ccc(O)cc4)c(C)n3C)cc2C1 [Example 110, N-Ethyl-5-{4-[(4-hydroxyphenyl)(methyl)carbamoyl]-1,5-dimethyl-1H-pyrrol-2-yl}-6-[(3R)-3-methyl-1,2,3,4-tetrahydroisoquinoline-2-carbonyl]-2,3-dihydro-1H-isoindole-2-carboxamide]
IC50 (Bcl-2 protein): 19 nM
IC50 [1]: 329 nM

C[C@@H]1Cc2ccccc2CN1C(=O)c1cc2c(cc1-c1cc(C(=O)N(C)c3ccc(O)cc3)c3n1CCCC3)CCN(C(=O)Cc1ccc(OCCN(C)C)cc1)C2 [Example 154, 3-[2-(2-{4-[2-(Dimethylamino)ethoxy]phenyl}acetyl)-7-[(3R)-3-methyl-1,2,3,4-tetrahydroisoquinoline-2-carbonyl]-1,2,3,4-tetrahydroisoquinolin-6-yl]-N-(4-hydroxyphenyl)-N-methyl-5,6,7,8-tetrahydroindolizine-1-carboxamide]
IC50 (Bcl-2 protein): 3.9 nM
IC50 [1]: 5.9 nM

C[C@@H]1Cc2ccccc2CN1C(=O)c1cc2c(cc1-c1cc(C(=O)N(C)c3ccc(O)cc3)c3n1CCCC3)CN(CCc1ccccc1)C2 [Example 72, N-(4-Hydroxyphenyl)-N-methyl-3-{6-[(3R)-3-methyl-1,2,3,4-tetrahydroisoquinoline-2-carbonyl]-2-(2-phenylethyl)-2,3-dihydro-1H-isoindol-5-yl}-5,6,7,8-tetrahydroindolizine-1-carboxamide]
IC50 (Bcl-2 protein): 21 nM
IC50 [1]: 229 nM
